How the values were obtained:
[1] = Evaluation of dissolvability (saturated solution in organic solvent); format: physicochemical; details: reflux 10 min, cooled to room temperature, left 16 hours, filtrated
Procedure: Each of the compounds obtained in Examples 1, 3, 5, 6, 7, 8, 9, 10, 11 and 12 and the corresponding specific compounds (24) to (33) was added to toluene, THF, anisole or chloroform (each: […]) until insoluble matter was found. The resultant mixture was stirred for 10 min under reflux of the solvent and cooled to room temperature, followed by stirring for 1 hour. After the mixture had been left to stand still for 16 hours, the supernatant was filtrated with a 0.2 μm PTFE filter to obtain a saturated solution. The obtained solution was dried under reduced pressure to calculate the dissolvability of the compound to each solvent.
The evaluation criteria in Table 1 are as follows.
A: 0.5% by mass≦Dissolvability B: 0.1% by mass≦Dissolvability<0.5% by mass C: 0.005% by mass≦Dissolvability<0.1% by mass D: Dissolvability<0.005% by mass

[2] = Solubility of annealed thin film in solvents; format: physicochemical; details: chloroform, THF, toluene, etc. at 25° C.; film after annealing 30 min at 150° C.
Procedure: Each (5 mg) of Ex. 1 compound and Ex. 2 compound synthesized in Synthesis Examples 1 and 2 was dissolved in THF, so that the concentration of the compound became 0.1% by mass, and the mixture was filtrated using a 0.2 μm-filter to prepare a solution. Onto a N-type silicon substrate having a 300 nm-thick thermally-oxidized film, which had been soaked in concentrated sulfuric acid for 24 hours, 100 μL of the prepared solution was added dropwise with a pipette, and a […] liquid droplet of the prepared solution was jetted 50 times using an inkjet apparatus (head; product of Ricoh Printing Systems, Ltd.). The thus-treated substrate was covered with a petri dish and left to stand still until the solvent was evaporated to thereby form a thin film. […] Next, the thin film was subjected to annealing for 30 min at 150° C. in an argon atmosphere.
After annealing, a plurality of colored domains were observed under the polarization microscope, and it was confirmed that a smooth and crystalline film was obtained. These films were obtained because each of Ex. 1 compound and Ex. 2 compound serving as precursors lost an ester group (i.e., a soluble group) and converted to Compound 24 having stronger intermolecular interaction, and became crystalline in the film. The thin film was insoluble in chloroform, THF, toluene, etc. at 25° C.

Row | SMILES | Dissolvability, solvent Anisole [1] | Dissolvability, solvent THF [1] | Dissolvability, solvent Toluene [1] | solubility of thin film [2]
1 | c1ccc2cc(-c3cc4sc(-c5ccc6ccccc6c5)cc4s3)ccc2c1 [Compound (24)] | D (Dissolvability<0.005% by mass) | D (Dissolvability<0.005% by mass) | D (Dissolvability<0.005% by mass) | insoluble
2 | c1ccc2c(c1)ccc1c3cc4sc5c6ccccc6ccc5c4cc3sc21 [Compound (25)] | D (Dissolvability<0.005% by mass) | D (Dissolvability<0.005% by mass) | D (Dissolvability<0.005% by mass) | –
3 | c1ccc2c(c1)ccc1cc3ccc4c5c(ccc6ccccc65)cc5ccc(c12)c3c54 [Compound (26)] | D (Dissolvability<0.005% by mass) | D (Dissolvability<0.005% by mass) | D (Dissolvability<0.005% by mass) | –
4 | c1ccc2c(c1)ccc1c3cc4ccc5c6ccccc6ccc5c4cc3ccc21 [Compound (27)] | D (Dissolvability<0.005% by mass) | D (Dissolvability<0.005% by mass) | D (Dissolvability<0.005% by mass) | –
5 | c1cc2ccc3cc4ccc5cc6c(ccc7cc8ccc9cccc%10ccc(c76)c8c9%10)cc5c4c4ccc(c1)c2c34 [Compound (28)] | D (Dissolvability<0.005% by mass) | D (Dissolvability<0.005% by mass) | D (Dissolvability<0.005% by mass) | –
6 | c1ccc2cc3c(ccc4c3ccc3c4ccc4c5ccc6cc7ccccc7cc6c5ccc43)cc2c1 [Compound (29)] | D (Dissolvability<0.005% by mass) | D (Dissolvability<0.005% by mass) | D (Dissolvability<0.005% by mass) | –
7 | C(#Cc1cc2sc3cc4c(cc3c2s1)sc1cc(C#Cc2ccc3ccccc3c2)sc14)c1ccc2ccccc2c1 [Compound (30)] | D (Dissolvability<0.005% by mass) | D (Dissolvability<0.005% by mass) | D (Dissolvability<0.005% by mass) | –
8 | C(#Cc1ccc2c(ccc3cc(C#Cc4ccccc4)ccc32)c1)c1ccccc1 [Compound (31)] | C (0.005% by mass≦Dissolvability<0.1% by mass) | B (0.1% by mass≦Dissolvability<0.5% by mass) | C (0.005% by mass≦Dissolvability<0.1% by mass) | –
9 | COC1CC=Cc2ccc(-c3cc4sc(-c5ccc6c(c5)C(OC)CC=C6)cc4s3)cc21 (stereo not shown) [Ex. 3 compound] | B (0.1% by mass≦Dissolvability<0.5% by mass) | A (0.5% by mass≦Dissolvability) | A (0.5% by mass≦Dissolvability) | –
10 | CCCCC(CC)C(=O)OC1Cc2ccccc2-c2c1cc1ccc3c4c(cc5ccc2c1c53)C(OC(=O)C(CC)CCCC)Cc1ccccc1-4 (stereo not shown) [Ex. 7 compound] | B (0.1% by mass≦Dissolvability<0.5% by mass) | A (0.5% by mass≦Dissolvability) | B (0.1% by mass≦Dissolvability<0.5% by mass) | –
11 | CC(C)(C)C(=O)OC1Cc2cc3c(cc2-c2ccc4ccccc4c21)CC(OC(=O)C(C)(C)C)c1c-3ccc2ccccc12 (stereo not shown) [Ex. 8 compound] | A (0.5% by mass≦Dissolvability) | A (0.5% by mass≦Dissolvability) | A (0.5% by mass≦Dissolvability) | –
12 | CCCCCC(=O)OC1CC=Cc2cc3c(ccc4c3ccc3c4ccc4c5ccc6cc7c(cc6c5ccc43)C=CCC7OC(=O)CCCCC)cc21 (stereo not shown) [Ex. 10 compound] | B (0.1% by mass≦Dissolvability<0.5% by mass) | A (0.5% by mass≦Dissolvability) | B (0.1% by mass≦Dissolvability<0.5% by mass) | –
13 | CCCCCC(=O)OC1Cc2cc(C#Cc3ccccc3)ccc2-c2ccc(C#Cc3ccccc3)cc21 (stereo not shown) [Ex. 12 compound] | A (0.5% by mass≦Dissolvability) | A (0.5% by mass≦Dissolvability) | A (0.5% by mass≦Dissolvability) | –

Source: patent US20130095605A1, “LEAVING SUBSTITUENT-CONTAINING COMPOUND, ORGANIC SEMICONDUCTOR MATERIAL FORMED THEREFROM, ORGANIC ELECTRONIC DEVICE, ORGANIC THIN-FILM TRANSISTOR AND DISPLAY DEVICE USING THE ORGANIC SEMICONDUCTOR MATERIAL, METHOD FOR PRODUCING FILM-LIKE PRODUCT, PI-ELECTRON CONJUGATED COMPOUND AND METHOD FOR …” (RICOH COMPANY, LTD., priority 2010, published 2013)
